We go through 3 molecules from patent publication US7641897B2, “Feeder layer and serum independent embryonic stem cells” (The Board of Trustees of the Leland Stanford Junior …, priority 2004, dated 2010).

What all share (assay type): cell-based, murine
The subject of assay [1] is parental ES cell line (D3 ES cells). The assay can be described thus: Self-renewal, differentiation and growth of ES cells in serum- and feeder-free culture with LIF and MAP kinase inhibitors. The method, then: (§1) FIG. 5A-5C. Effect of MAPK inhibitors on ES cell self-renewal. (A) Phase contrast image of parental ES cells cultured for 8 days (left), Bcl-2 ES cells cultured for 14 days (middle), and parental ES cells cultured with PD98059 for 14 days (right) in serum- and feeder-free conditions. (B) Growth curve of Bcl-2 ES cells (square) and parental ES cells cultured with 12.5 μM of PD98059 (circle) in serum- and feeder-free conditions. (C) Colony formation activity of parental (p) ES cells cultured without (Non) or with PD98059, and Bcl-2 ES cells at low cell density. Cultures were initiated with 200 cells per well (12 well-plate) and colonies were enumerated 7 days later.
(§2) Cell culture. D3 ES cells (Doetschman et al. (1985) J. Embryol. Exp. Morphol. 87:27-45) were maintained as previously described (Yamane et al. (1997) Blood 90:3516-3523), and clones expressing human Bcl-2 were established by co-transfecting parental D3 ES cells with the human Bcl2-IRES-EGFP transgene under control of the CAG promoter, and a puromycin resistance gene cassette. Bcl-2 ES cell clones were selected and expanded in the presence of puromycin. For serum-free cultures, ES cells are maintained in X-VIVO 15 (Cambrex) supplemented with 2 mM GlutaMax-1 (Gibco), 0.1 mM 2-mercaptoethanol, 1,000 U/mL ESGRO (Chemicon International), 100 U/mL penicillin (Gibco), and […] streptomycin (Gibco) on gelatin-coated dishes. Alternatively, IMDM/F12 (1:1) (Gibco) supplemented with 2 mM GlutaMax-1, 0.1 mM 2-mercaptoethanol, 0.1% polyvinyl alcohol (Sigma), 1× Insulin-Transferin-Selenium-X (Gibco), 1,000 U/mL ESGRO, 100 U/mL penicillin, and 100 mg streptomycin was used where indicated. Cells were dissociated with Cell Dissociation Buffer (Enzyme-Free, Hanks'-based, Gibco).
MAP kinase inhibitors. 1 μM SB203580 (Calbiochem) and 12.5 μM PD98059 (Calbiochem) were used as described (Qi et al. (2004) Proc. Natl. Acad. Sci USA 101, 6027-6032; Burdon et al. (1999) Dev. Biol. 210, 30-43).

The next assay relates to parental ES cells. Description: Colony formation activity at low cell density in serum- and feeder-free conditions. The following applies: 200 cells per well (12 well-plate), colonies enumerated 7 days later (FIG. 5C). The method, then: as §1
as §2, with “Alternatively, IMDM/F12 (1:1) (Gibco) supplemented with 2 mM GlutaMax-1, 0.1 mM 2-mercaptoethanol, 0.1% polyvinyl alcohol (Sigma), 1× Insulin-Transferin-Selenium-X (Gibco), 1,000 U/mL ESGRO, 100 U/mL penicillin, and 100 mg streptomycin was used where indicated. Cells were dissociated with Cell Dissociation Buffer (Enzyme-Free, Hanks'-based, Gibco).” left out

Assay [2] concerns parental cell line (D3 ES cells). The assay can be described thus: Viability of the parental cell line in serum- and feeder-free conditions with BMP. The following applies: addition of BMP.
From the text: as §2

The subject of assay [3] is Bcl-2, Bcl-xL, Mcl-1, Bax. Description: Western blot analysis of Bcl-2 family members after BMP stimulation. The following applies: parental ES cells, serum- and feeder-free, treated with BMP4 for 6 hours (FIG. 4B). Here is the method: FIG. 4A-4B. Western blot analysis for Smad proteins and Bcl-2 family members. (A) Cell lysates of parental cells cultured in conventional conditions with serum [p(serum)], a Bcl-2 clone in serum and feeder-free conditions untreated (Bcl-2), or treated with BMP4 for 90 minutes (Bcl-2+BMP4) were analyzed for the presence of phospho-Smad1/5/8 by western blotting (upper panel). The same membrane was stripped and reprobed with anti-actin antibody (lower panel). The band denoted by an asterisk is a product of non-specific staining. (B) Western blot analysis of Bcl-2 family members was performed for parental ES cells in conventional conditions with serum (serum), and for parental ES cells in serum- and feeder-free conditions without (Non) or treated with BMP4 for 6 hours (BMP4).
Western blots. Cells were lysed in 50 mM Tris-Cl (pH7.5)/150 mM NaCl/1% Triton-X/1% protease inhibitor cocktail set III (Calbiochem)/1 mM EDTA/1 mM Na3Vo4/1 mM NaF and proteins were separated by SDS-PAGE under denaturing conditions and transferred to Immobilon-P membrane (Miilipore). After blocking with 5% milk, the membrane was incubated with primary antibodies against phospho-Smad1/5/8 (Cell Signaling Technology), actin (Sigma), Bcl-2 (Dako), Bcl-xL (BD Bioscience), Mcl-1 (ABGENT), or Bax (BD Bioscience), washed, and then incubated with HRP-conjugated secondary antibodies. […]
For orientation: In western blotting, separated proteins are transferred to a membrane and probed.

For `COc1cccc(-c2cc(=O)c3ccccc3o2)c1N` [PD98059], the “growth speed of parental cell line with inhibitor compared with Bcl-2 ES cells” value in assay [1] (12.5 μM PD98059, serum- and feeder-free (FIG. 5B)) is recorded as “somewhat faster”. Also, the “differentiated cells which appeared during culture” value in assay [1] (parental ES cell line, 12.5 μM PD98059, serum- and feeder-free, 14 days (FIG. 5A)) is “dramatically reduced”. Also, the “continuous growth in serum- and feeder-free conditions in the presence of LIF without Bcl-2” value in assay [1] (parental ES cells, 12.5 μM PD98059, crisis upon continued passaging (FIG. 5B)) is given as “supported the continuous growth”. Further, the “colony formation at low cell density” value with parental ES cells was “could never support the colony formation”.
In the case of `C[S+]([O-])c1ccc(-c2nc(-c3ccncc3)c(-c3ccc(F)cc3)[nH]2)cc1` (stereo not shown) [SB 203580], the “effect on self-renewal and differentiation of ES cells” value in assay [1] (1 μM SB203580, serum- and feeder-free conditions) is “did not show any effect”.

B1: BMP: bone morphogenic protein; BMP4 used for stimulation of ES cells (protein, UniProt P12644 293-408, looked up)
Bone morphogenetic protein 4: SPKHHSQRARKKNKNCRRHSLYVDFSDVGWNDWIVAPPGYQAFYCHGDCPFPLADHLNSTNHAIVQTLVNSVNSSIPKACCVPTELSAISMLYLDEYDKVVLKNYQEMVVEGCGCR
Consider B1, for which the “viability of the parental cell line” value in assay [2] is listed as “did not improve viability”. In addition, the “expression of Bcl-2, Bcl-xL, Mcl-1 anti-apoptotic proteins” value in assay [3] was “neither Bcl-2, Bcl-xL, or Mcl-1 anti-apoptotic proteins are up-regulated”.
